Results taken from US20170290774A1, “NEUROKININ-1 RECEPTOR ANTAGONIST COMPOSITION FOR TREATMENT OF DISEASES AND CONDITIONS OF THE RESPIRATORY TRACT” (PLUS VITECH, S.L., priority 2014, published 2017).

Tests used:
[1] = test system: MMP-9; experiment: Immunohistochemistry of MMP-9 in respiratory tract tissue of sodium hypochlorite aerosol-treated rabbits; format: in vivo, New Zealand albino rabbits
Description: It is known that the factors TGF-α, TGF-β 1, TGF-β 2, TGF-β 3, SPARC, MMP-3; MMP-7, MMP-9, MMP-11, MMP-13 and MMP-14, TGF-β, NF-kB, EGF, MMP-9, VEGF and TNF-α which are produced by lung cells (pneumocytes, fibroblasts and vascular endothelial cells) and inflammatory cells (macrophages, lymphocytes and polymorphonuclear leukocytes) are involved in the pathophysiology and development of said respiratory tract diseases. […] Herein, 27 New Zealand albino rabbits (New Zealand White Rabbit) with an initial average weight about 3 kg were used in this example. All subjects were administered an aerosol of a solution consisting of a mixture of water and sodium hypochlorite (35 g sodium hypochlorite per liter of water) at a rate of 5 mL of said solution by inhalation three times a day for 7 days (days 1 to 7 of experimentation). Subsequently, from days 3 to 7, a group of 3 rabbits (Group 1) was administered an oral dose of 10 mg/kg body weight per day, another group of 3 rabbits (Group 2) was administered an oral dose of 40 mg/kg body weight per day, a third group (Group 3) was administered an oral dose of 80 mg/kg body weight per day and a fourth group (Group 4) was administered an oral dose of 100 mg/kg body weight per day. […] This mixture was administered as an aerosol by inhalation, also from days 3 to 7, to a group of 3 rabbits (group 5) at a dose of 0.05 mg/kg body weight per day, to another group of three rabbits (Group 6) at a dose of 0.1 mg/kg body weight per day, to another group of three rabbits (Group 7) at a dose of 0.2 mg/kg body weight per day and to another group of three rabbits (Group 8) at a dose of 0.4 mg/kg body weight per day. A placebo consisting only of olive oil was administered from days 3 to 7 to a control group of 3 rabbits (placebo group). In parallel, 3 rabbits were kept under identical conditions but were not administered any treatment nor the aforementioned sodium hypochlorite solution (control group). […] On day 7 of the experiment all animals were euthanized and necropsied. […] Samples were taken at the peripheral level of the lung parenchyma, just below the pleural surface. Tissue samples were also taken from the nasal cavity, pharynx, larynx and bronchi. Immunohistochemistry studies were performed for all samples to evaluate the levels of the markers TGF-α, TGF-β 1, TGF-β 2, TGF-β 3 SPARC, MMP-3; MMP-7, MMP-9, MMP-11, MMP-14, TGF-β, TNF-α and VEGF. In said immunohistochemistry studies, a sample of each sample was dehydrated by treatment with increasing concentrations of ethanol and finally xylene. Subsequently said dried samples were embedded in paraffin, thus creating a block. Said paraffin blocks were cut on a microtome to a thickness of 5 μm, and the resulting sections (slices) were placed on slides suitable for conducting immunohistochemistry techniques. Subsequently, the sections were deparaffinised by immersion in xylene and then rehydrated through immersion in a series of solutions containing decreasing concentrations of ethanol and, finally, water. […] The samples were then allowed to cool to room temperature over 10 minutes. Endogenous peroxidase activity was blocked by treatment with 3% hydrogen peroxide over 30 min at room temperature. […] In order to verify the expression of NK1 receptors, the cell samples were incubated in the presence of anti-NK1 antibodies ([…], Sigma-Aldrich) diluted 1:1000 at 4° C. overnight. After this time they were washed in 0.05M Tris buffer at room temperature. Subsequently, Envision System-HRP (Dako) reagents were added for 30 min at room temperature. Once this time had expired, the samples were again washed with 0.05 M Tris buffer, and immunoreactivity was visualized by light microscopy with a chromogenic solution with 3,3'-diaminobenzidine (DAB+; Dako, USA). In order to differentiate the cell nuclei, these were lightly stained with haematoxylin. Samples that were not incubated with the primary antibody, but wherein this was replaced by a non-immune serum were used as negative controls. […]

[2] = Saturation concentration in olive oil:ethanol (9:1); format: physicochemical; settings: 25° C.
Description: Each of said mixtures was continuously and gently stirred for 10 minutes at ambient temperature (25° C.) and then maintained at rest for 60 minutes. The saturation concentration was considered to be that which was immediately less than a concentration where deposition was observed, but in which no deposition of the active ingredient was observed.

Saturation concentration [2]: 80 nM
Compound: C[C@@H](OC1OCCN(Cc2nc(=O)[nH][nH]2)C1c1ccc(F)cc1)c1cc(C(F)(F)F)cc(C(F)(F)F)c1 (stereo in doubt) [Aprepitant, 5-([(2R,3S)-2-((R)-1-[3,5-bis(trifluoromethyl)phenyl]ethoxy)-3-(4-fluorophenyl)morpholino]methyl)-1H-1,2,4-triazol-3(2H)-one]
Percent increase in MMP-9 with respect to the control group ([1]; bronchial tissue, Group 1, oral 10 mg/kg per day): 749.34% | Percent increase in MMP-9 with respect to the control group ([1]; bronchial tissue, Group 2, oral 40 mg/kg per day): 672.94% | Percent increase in MMP-9 with respect to the control group ([1]; bronchial tissue, Group 3, oral 80 mg/kg per day): 495.87% | Percent increase in MMP-9 with respect to the control group ([1]; bronchial tissue, Group 4, oral 100 mg/kg per day): 305.34% | % Med G5/C: percent increase in marker MMP-9 with respect to the control group ([1]; bronchial tissue, Group 5): 673.45% | % Med G6/C: percent increase in marker MMP-9 with respect to the control group ([1]; bronchial tissue, Group 6): 452.61% | % Med G7/C: percent increase in marker MMP-9 with respect to the control group ([1]; bronchial tissue, Group 7): 325.54% | % Med G8/C: percent increase in marker MMP-9 with respect to the control group ([1]; bronchial tissue, Group 8): 153.34% | Percent increase in MMP-9 with respect to the control group ([1]; laryngeal tissue, Group 1, oral 10 mg/kg per day): 1,290.89% | Percent increase in MMP-9 with respect to the control group ([1]; laryngeal tissue, Group 2, oral 40 mg/kg per day): 983.98% | Percent increase in MMP-9 with respect to the control group ([1]; laryngeal tissue, Group 3, oral 80 mg/kg per day): 898.18% | Percent increase in MMP-9 with respect to the control group ([1]; laryngeal tissue, Group 4, oral 100 mg/kg per day): 788.78% | Percent increase in MMP-9 with respect to the control group ([1]; laryngeal tissue, Group 5, inhalation 0.05 mg/kg per day): 989.34% | Percent increase in MMP-9 with respect to the control group ([1]; laryngeal tissue, Group 6, inhalation 0.1 mg/kg per day): 567.37% | Percent increase in MMP-9 with respect to the control group ([1]; laryngeal tissue, Group 7, inhalation 0.2 mg/kg per day): 256.47% | Percent increase in MMP-9 with respect to the control group ([1]; laryngeal tissue, Group 8, inhalation 0.4 mg/kg per day): 123.23% | Percent increase in MMP-9 with respect to the control group ([1]; lung tissue, Group 1, oral 10 mg/kg per day): 566.19% | Percent increase in MMP-9 with respect to the control group ([1]; lung tissue, Group 2, oral 40 mg/kg per day): 384.44% | Percent increase in MMP-9 with respect to the control group ([1]; lung tissue, Group 3, oral 80 mg/kg per day): 338.57% | Percent increase in MMP-9 with respect to the control group ([1]; lung tissue, Group 4, oral 100 mg/kg per day): 326.02% | Percent increase in MMP-9 with respect to the control group ([1]; lung tissue, Group 5, inhalation 0.05 mg/kg per day): 570.94% | Percent increase in MMP-9 with respect to the control group ([1]; lung tissue, Group 6, inhalation 0.1 mg/kg per day): 267.29% | Percent increase in MMP-9 with respect to the control group ([1]; lung tissue, Group 7, inhalation 0.2 mg/kg per day): 183.98% | Percent increase in MMP-9 with respect to the control group ([1]; lung tissue, Group 8, inhalation 0.4 mg/kg per day): 156.83% | Percent increase in MMP-9 with respect to the control group ([1]; nasal cavity tissue, Group 1, oral 10 mg/kg per day): 1,355.64% | Percent increase in MMP-9 with respect to the control group ([1]; nasal cavity tissue, Group 2, oral 40 mg/kg per day): 768.75% | Percent increase in MMP-9 with respect to the control group ([1]; nasal cavity tissue, Group 3, oral 80 mg/kg per day): 511.58% | Percent increase in MMP-9 with respect to the control group ([1]; nasal cavity tissue, Group 4, oral 100 mg/kg per day): 328.92% | Percent increase in MMP-9 with respect to the control group ([1]; nasal cavity tissue, Group 5, inhalation 0.05 mg/kg per day): 1,289.77% | Percent increase in MMP-9 with respect to the control group ([1]; nasal cavity tissue, Group 6, inhalation 0.1 mg/kg per day): 588.48% | Percent increase in MMP-9 with respect to the control group ([1]; nasal cavity tissue, Group 7, inhalation 0.2 mg/kg per day): 291.36% | Percent increase in MMP-9 with respect to the control group ([1]; nasal cavity tissue, Group 8, inhalation 0.4 mg/kg per day): 143.08% | Percent increase in MMP-9 with respect to the control group ([1]; pharyngeal tissue, Group 1, oral 10 mg/kg per day): 1,102.28% | Percent increase in MMP-9 with respect to the control group ([1]; pharyngeal tissue, Group 2, oral 40 mg/kg per day): 945.34% | Percent increase in MMP-9 with respect to the control group ([1]; pharyngeal tissue, Group 3, oral 80 mg/kg per day): 789.45% | Percent increase in MMP-9 with respect to the control group ([1]; pharyngeal tissue, Group 4, oral 100 mg/kg per day): 561.21% | Percent increase in MMP-9 with respect to the control group ([1]; pharyngeal tissue, Group 5, inhalation 0.05 mg/kg per day): 998.67% | Percent increase in MMP-9 with respect to the control group ([1]; pharyngeal tissue, Group 6, inhalation 0.1 mg/kg per day): 505.32% | Percent increase in MMP-9 with respect to the control group ([1]; pharyngeal tissue, Group 7, inhalation 0.2 mg/kg per day): 212.24% | Percent increase in MMP-9 with respect to the control group ([1]; pharyngeal tissue, Group 8, inhalation 0.4 mg/kg per day): 121.23%
